From patent US20240116985A1, “STAPLED PEPTIDES AND METHODS THEREOF” (priority 2020, published 2024)

Experiments:
[1] = biological target: T1, beta-catenin/TCF4 engagement (Homo sapiens, UniProt P35222); assay: Nano-BRET target engagement assay (B-cat-Halo & TCF4-Luc in HEK293 cells); type: cell-based; settings: read-out: NanoBRET Abs IC50
T1 construct: expressed in transfected cells; host or cells: HEK293
T1 sequence (P35222 1-781): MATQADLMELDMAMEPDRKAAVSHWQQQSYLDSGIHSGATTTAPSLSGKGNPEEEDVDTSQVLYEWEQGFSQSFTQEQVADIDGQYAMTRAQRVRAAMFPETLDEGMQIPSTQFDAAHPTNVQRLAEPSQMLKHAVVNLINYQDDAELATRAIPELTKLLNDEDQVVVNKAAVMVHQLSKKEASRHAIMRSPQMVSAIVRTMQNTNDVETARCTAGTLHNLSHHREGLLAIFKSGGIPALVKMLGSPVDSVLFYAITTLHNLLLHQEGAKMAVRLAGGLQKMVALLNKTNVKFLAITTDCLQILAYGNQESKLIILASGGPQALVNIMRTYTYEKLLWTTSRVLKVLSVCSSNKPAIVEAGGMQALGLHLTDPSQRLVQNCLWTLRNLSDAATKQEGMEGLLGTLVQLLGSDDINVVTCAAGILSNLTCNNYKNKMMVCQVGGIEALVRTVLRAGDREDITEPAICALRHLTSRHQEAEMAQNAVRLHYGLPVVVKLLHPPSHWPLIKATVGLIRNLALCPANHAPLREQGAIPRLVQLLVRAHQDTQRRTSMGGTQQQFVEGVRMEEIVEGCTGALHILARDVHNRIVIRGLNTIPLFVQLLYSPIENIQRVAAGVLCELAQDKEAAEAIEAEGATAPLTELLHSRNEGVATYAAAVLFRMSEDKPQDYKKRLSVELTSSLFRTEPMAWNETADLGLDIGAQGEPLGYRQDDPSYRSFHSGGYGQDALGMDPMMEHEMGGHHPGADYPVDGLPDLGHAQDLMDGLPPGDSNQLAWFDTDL

[2] = biological target: T2, full-length beta-Catenin (Uniprot ID P35222) (Homo sapiens, UniProt P35222); assay: Fluorescence polarization IC50 (beta-catenin / 5FAM-TCF4 10-53 competition); type: binding; settings: fluorescence polarization; read-out: beta-Catenin FP IC50
T2 construct: 10 nM full-length beta-Catenin (Uniprot ID P35222)
T2 sequence (P35222 1-781): T1 sequence (P35222 1-781)

Structure (SMILES)	IC50 [1]	IC50 [2]
CCSSCCOC(=O)C[C@@H]1NC(=O)[C@H](CC(=O)O)NC(=O)C2(CCCC=CCCCOC(=O)N3CC[C@@](C(=O)N[C@@H](Cc4ccsc4)C(=O)N[C@@H](Cc4csc5ccccc45)C(=O)N[C@@H](CCC(N)=O)C(N)=O)(C3)NC(=O)[C@H](CC(C)C)NC(=O)[C@H](Cc3ccccc3)NC(=O)[C@H](C)NC(=O)[C@H](C)NC1=O)CCCC=CC[C@]1(CCCN1C(C)=O)C(=O)N[C@@H](CC(=O)O)C(=O)N[C@@H](CC(C)(C)C)C(=O)N2 (stereo partly drawn) [I-1965, Ac-PL3-Asp-Npg-B5-Asp-[EtSSEt]AspE-Ala-Ala-Phe-Leu-PyrS2-3Thi-BztA-Gln-NH2]	25200 nM	633 nM
CC(=O)N1CCC[C@]12CC=CCCCC[C@@](C)(C(=O)N[C@@H](CC(=O)O)C(=O)N[C@@H](CC(=O)O)C(=O)N[C@@H](C)C(=O)N[C@@H](C)C(=O)N[C@@H](Cc1ccccc1)C(=O)N[C@@H](CC(C)C)C(=O)NC(C)(C)C(=O)N[C@@H](Cc1ccsc1)C(=O)N[C@@H](Cc1csc3ccccc13)C(=O)N[C@@H](CCC(N)=O)C(N)=O)NC(=O)[C@H](CC(C)(C)C)NC(=O)[C@H](CC(=O)O)NC2=O [I-1978, Ac-PL3-Asp-Npg-S6-Asp-Asp-Ala-Ala-Phe-Leu-Aib-3Thi-BztA-Gln-NH2]	> 20000 nM	145 nM
CC(=O)N1CCC[C@]12CC=CC[C@@](C)(C(=O)N[C@@H](CC(=O)O)C(=O)N[C@@H](CC(=O)O)C(=O)N[C@@H](C)C(=O)N[C@@H](C)C(=O)N[C@@H](Cc1ccccc1)C(=O)N[C@@H](CC(C)C)C(=O)NC(C)(C)C(=O)N[C@@H](Cc1ccsc1)C(=O)N[C@@H](Cc1csc3ccccc13)C(=O)N[C@@H](CCC(N)=O)C(N)=O)NC(=O)[C@H](CC(C)(C)C)NC(=O)[C@H](CC(=O)O)NC2=O [I-1980, Ac-PL3-Asp-Npg-S3-Asp-Asp-Ala-Ala-Phe-Leu-Aib-3Thi-BztA-Gln-NH2]	> 20000 nM	236 nM
CC(=O)N1CCC[C@]12CCCC[C@@](C)(C(=O)N[C@@H](CC(=O)O)C(=O)N[C@@H](CC(=O)O)C(=O)N[C@@H](C)C(=O)N[C@@H](C)C(=O)N[C@@H](Cc1ccccc1)C(=O)N[C@@H](CC(C)C)C(=O)NC(C)(C)C(=O)N[C@@H](Cc1ccsc1)C(=O)N[C@@H](Cc1csc3ccccc13)C(=O)N[C@@H](CCC(N)=O)C(N)=O)NC(=O)[C@H](CC(C)(C)C)NC(=O)[C@H](CC(=O)O)NC2=O [I-1983, Ac-PL3-Asp-Npg-S3-Asp-Asp-Ala-Ala-Phe-Leu-Aib-3Thi-BztA-Gln-NH2]	> 20000 nM	186 nM
CC(=O)N1CCC[C@]12CC=CCCCC1(CCCC=CCCCOC(=O)N3CC[C@@](C(=O)N[C@@H](Cc4ccccc4Cl)C(=O)N[C@@H](Cc4csc5ccccc45)C(=O)N[C@H](C(N)=O)C(C)C)(C3)NC(=O)[C@H](C)NC(=O)[C@H](Cc3ccccc3)NC(=O)[C@H](C)NC(=O)[C@H](C)NC(=O)[C@H](Cc3cccc(C(=O)O)c3)NC(=O)[C@H](CC(=O)O)NC1=O)NC(=O)[C@H](CC(C)(C)C)NC(=O)[C@H](CC(=O)O)NC2=O (stereo partly drawn) [I-2024, Ac-PL3-Asp-Npg-B5-Asp-3COOHF-Ala-Ala-Phe-Ala-PyrS2-2C1F-BztA-Val-NH2]	17900 nM	78 nM
CC(=O)N1CCC[C@]12CC=CCCCC1(CCCC=CCCCOC(=O)N3CC[C@@](C(=O)N[C@@H](Cc4ccccc4Cl)C(=O)N[C@@H](Cc4csc5ccccc45)C(=O)N[C@H](C)C(N)=O)(C3)NC(=O)[C@H](C)NC(=O)[C@H](Cc3ccccc3)NC(=O)[C@H](C)NC(=O)[C@H](C)NC(=O)[C@H](Cc3cccc(C(=O)O)c3)NC(=O)[C@H](CC(=O)O)NC1=O)NC(=O)[C@H](CC(C)(C)C)NC(=O)[C@H](CC(=O)O)NC2=O (stereo partly drawn) [I-2026, Ac-PL3-Asp-Npg-B5-Asp-3COOHF-Ala-Ala-Phe-Ala-PyrS2-2C1F-BztA-dAla-NH2]	9700 nM	26 nM
CC(=O)N1CCC[C@]12CC=CCCCC1(CCCC=CCCCOC(=O)N3CC[C@@](C(=O)N[C@@H](Cc4ccccc4Cl)C(=O)N[C@@H](Cc4csc5ccccc45)C(=O)N[C@H](C(N)=O)C(C)C)(C3)NC(=O)[C@H](CO)NC(=O)[C@H](Cc3ccccc3)NC(=O)[C@H](C)NC(=O)[C@H](C)NC(=O)[C@H](Cc3cccc(C(=O)O)c3)NC(=O)[C@H](CC(=O)O)NC1=O)NC(=O)[C@H](CC(C)(C)C)NC(=O)[C@H](CC(=O)O)NC2=O (stereo partly drawn) [I-2028, Ac-PL3-Asp-Npg-B5-Asp-3COOHF-Ala-Ala-Phe-Ser-PyrS2-2C1F-BztA-Val-NH2]	17600 nM	32 nM
CC(=O)N1CCC[C@]12CC=CCCCC1(CCCC=CCCCOC(=O)N3CC[C@@](C(=O)N[C@@H](Cc4ccccc4Cl)C(=O)N[C@@H](Cc4csc5ccccc45)C(=O)N[C@@H](Cc4ccccc4)C(N)=O)(C3)NC(=O)[C@H](CO)NC(=O)[C@H](Cc3ccccc3)NC(=O)[C@H](C)NC(=O)[C@H](C)NC(=O)[C@H](Cc3cccc(C(=O)O)c3)NC(=O)[C@H](CC(=O)O)NC1=O)NC(=O)[C@H](CC(C)(C)C)NC(=O)[C@H](CC(=O)O)NC2=O (stereo partly drawn) [I-2029, Ac-PL3-Asp-Npg-B5-Asp-3COOHF-Ala-Ala-Phe-Ser-PyrS2-2C1F-BztA-Phe-NH2]	26200 nM	35 nM
CC(=O)N1CCC[C@]12CC=CCCCC1(CCCC=CCCCOC(=O)N3CC[C@@](C(=O)N[C@@H](Cc4ccccc4Cl)C(=O)N[C@@H](Cc4csc5ccccc45)C(=O)N[C@H](C(N)=O)C(C)C)(C3)NC(=O)[C@H](CC(N)=O)NC(=O)[C@H](Cc3ccccc3)NC(=O)[C@H](C)NC(=O)[C@H](C)NC(=O)[C@H](Cc3cccc(C(=O)O)c3)NC(=O)[C@H](CC(=O)O)NC1=O)NC(=O)[C@H](CC(C)(C)C)NC(=O)[C@H](CC(=O)O)NC2=O (stereo partly drawn) [I-2032, Ac-PL3-Asp-Npg-B5-Asp-3COOHF-Ala-Ala-Phe-Asn-PyrS2-2C1F-BztA-Val-NH2]	20900 nM	16 nM
CC(=O)N1CCC[C@]12CC=CCCCC1(CCCC=CCCCOC(=O)N3CC[C@@](C(=O)N[C@@H](Cc4ccccc4Cl)C(=O)N[C@@H](Cc4csc5ccccc45)C(=O)N[C@@H](Cc4ccccc4)C(N)=O)(C3)NC(=O)[C@H](CC(N)=O)NC(=O)[C@H](Cc3ccccc3)NC(=O)[C@H](C)NC(=O)[C@H](C)NC(=O)[C@H](Cc3cccc(C(=O)O)c3)NC(=O)[C@H](CC(=O)O)NC1=O)NC(=O)[C@H](CC(C)(C)C)NC(=O)[C@H](CC(=O)O)NC2=O (stereo partly drawn) [I-2033, Ac-PL3-Asp-Npg-B5-Asp-3COOHF-Ala-Ala-Phe-Asn-PyrS2-2C1F-BztA-Phe-NH2]	9500 nM	30 nM

These reach a lower IC50 [1]. Values come first.

IC50 [1]	IC50 [2]	Structure (SMILES)
7800 nM	32 nM	CC(=O)N1CCC[C@]12CC=CCCCC1(CCCC=CCCCOC(=O)N3CC[C@@](C(=O)N[C@@H](Cc4ccccc4Cl)C(=O)N[C@@H](Cc4csc5ccccc45)C(=O)N[C@@H](C)C(N)=O)(C3)NC(=O)[C@H](C)NC(=O)[C@H](Cc3ccccc3)NC(=O)[C@H](C)NC(=O)[C@H](C)NC(=O)[C@H](Cc3cccc(C(=O)O)c3)NC(=O)[C@H](CC(=O)O)NC1=O)NC(=O)[C@H](CC(C)(C)C)NC(=O)[C@H](CC(=O)O)NC2=O (stereo partly drawn) [I-2023, Ac-PL3-Asp-Npg-B5-Asp-3COOHF-Ala-Ala-Phe-Ala-PyrS2-2C1F-BztA-Ala-NH2]
4100 nM	13 nM	CC(=O)N1CCC[C@]12CC=CCCCC1(CCCC=CCCCOC(=O)N3CC[C@@](C(=O)N[C@@H](Cc4ccccc4Cl)C(=O)N[C@@H](Cc4csc5ccccc45)C(=O)N[C@@H](C)C(N)=O)(C3)NC(=O)[C@H](CO)NC(=O)[C@H](Cc3ccccc3)NC(=O)[C@H](C)NC(=O)[C@H](C)NC(=O)[C@H](Cc3cccc(C(=O)O)c3)NC(=O)[C@H](CC(=O)O)NC1=O)NC(=O)[C@H](CC(C)(C)C)NC(=O)[C@H](CC(=O)O)NC2=O (stereo partly drawn) [I-2027, Ac-PL3-Asp-Npg-B5-Asp-3COOHF-Ala-Ala-Phe-Ser-PyrS2-2C1F-BztA-Ala-NH2]
3900 nM	22 nM	CC(=O)N1CCC[C@]12CC=CCCCC1(CCCC=CCCCOC(=O)N3CC[C@@](C(=O)N[C@@H](Cc4ccccc4Cl)C(=O)N[C@@H](Cc4csc5ccccc45)C(=O)N[C@H](C)C(N)=O)(C3)NC(=O)[C@H](CO)NC(=O)[C@H](Cc3ccccc3)NC(=O)[C@H](C)NC(=O)[C@H](C)NC(=O)[C@H](Cc3cccc(C(=O)O)c3)NC(=O)[C@H](CC(=O)O)NC1=O)NC(=O)[C@H](CC(C)(C)C)NC(=O)[C@H](CC(=O)O)NC2=O (stereo partly drawn) [I-2030, Ac-PL3-Asp-Npg-B5-Asp-3COOHF-Ala-Ala-Phe-Ser-PyrS2-2C1F-BztA-dAla-NH2]
4700 nM	11 nM	CC(=O)N1CCC[C@]12CC=CCCCC1(CCCC=CCCCOC(=O)N3CC[C@@](C(=O)N[C@@H](Cc4ccccc4Cl)C(=O)N[C@@H](Cc4csc5ccccc45)C(=O)N[C@@H](C)C(N)=O)(C3)NC(=O)[C@H](CC(N)=O)NC(=O)[C@H](Cc3ccccc3)NC(=O)[C@H](C)NC(=O)[C@H](C)NC(=O)[C@H](Cc3cccc(C(=O)O)c3)NC(=O)[C@H](CC(=O)O)NC1=O)NC(=O)[C@H](CC(C)(C)C)NC(=O)[C@H](CC(=O)O)NC2=O (stereo partly drawn) [I-2031, Ac-PL3-Asp-Npg-B5-Asp-3COOHF-Ala-Ala-Phe-Asn-PyrS2-2C1F-BztA-Ala-NH2]
